Test results reported in article PMC6764291 (Frontiers in Oncology, 2019).

Experiments:
H314 = experiment: XTT cell viability, H314; type: cell-based; conditions: n ≥ 4
Method: The human squamous cell carcinoma cell lines UM-SCC-74A and UM-SCC-74B were kindly provided by Professor TE Carey (University of Michigan, USA) and cultured in Dulbecco's Modified Eagle Medium (DMEM) with 10% fetal bovine serum, 1% L-glutamine, 1% antibiotics (100 IU penicillin and 100 μg/ml streptomycin) as well as 1% non-essential amino acids (all from Biochrom Kg, Berlin, Germany). UT-SCC-45 (kindly provided by Dr. R. Grenman, Turku University Central Hospital, Finland) was cultured in DMEM with the abovementioned additives. HCT116 and A431 were purchased from American Type Culture Collection (Manassas, VA, USA). […]
Five-hundred to ten thousands cells were seeded in flat-bottomed 96-well plates and incubated for 48 h prior to irradiation with 2Gy. […] Plates were incubated for up to 6 h at 37° and absorbance was measured by using a BioMark Microplate Reader (Bio-Rad Laboratories AB, Solna, Sweden).
GraphPad Prism version 6.07 (GraphPad Software, San Diego, USA) was used for data processing and analysis. p-values were determined using unpaired student's t-test for comparison between two groups or one-way ANOVA followed by Tukey's multiple comparisons test, with p < 0.05 (^*), p < 0.01 (^**), p < 0.001 (^***), and p < 0.0001 (^****). […]

cleaved caspase-3 = experiment: Flow cytometry cleaved caspase-3, UM-SCC-74B; type: cell-based, human
Method: (§1) Cells were irradiated using ^137Cs gamma-ray photons at a dose-rate of ~1 Gy/min (Best Theratronics Gammacell® 40Exactor, Springfield, USA).
(§2) Cells were collected and fixed in 70% ethanol at 6, 12, 24, 48, 72, and 96 h post-irradiation and stored at −20°C. For cell cycle analyses, 6, 12, 24, and 48 h samples were rehydrated and washed twice with PBS and stained with DAPI (Sigma Aldrich Sweden, Stockholm, Sweden) using 1 μg/ml for 30 min. 24, 48, 72, and 96 h samples were stained with caspase-3 and Noxa (ab13847 (1:500) and ab13654 (1:1,000), AbCam, Cambridge, UK) overnight at 4°C, followed by incubation with fluorescent labeled secondary antibodies for 90 min (ab 1:400) at room temperature. Analyses were performed using a BD LSR Fortessa flow cytometer (Becton Dickinson Biosciences, San Jose, USA). Data analyses for cleaved caspase-3 and Noxa were performed with BD FACSDiVa (Becton Dickinson Biosciences, San Jose, USA), while cell cycle analyses of exclusively viable cells were performed using FlowJo (Becton, Dickinson Biosciences, San Jose, USA). Coefficient of variation (CV) values, were below seven for all samples.

Noxa = experiment: Flow cytometry Noxa expression, UM-SCC-74B; type: cell-based, human; conditions: 20 μM PM2, 72 h
Method: as §1, §2

UM-SCC-74B spheroids = experiment: 3D tumor spheroid growth, UM-SCC-74B; type: cell-based, human; conditions: for Maximum time to termination / Median time to termination: volume >600 μm^3; for CDI: CDI = AB/(A*B)
Method: as §1
For liquid overlay 3D spheroid formation, 96-well plates were coated with 0.15% agarose dissolved in PBS with 1% penicillin/streptomycin. 1000 UM-SCC-74B cells/well were seeded and incubated at 37°C for 3 days prior to treatment. […] Half of the medium was replaced every 48 h for the first 10 days, thereafter every 4 days. […] Images were obtained every 2–4 days using a Canon EOS 700D camera mounted on an inverted Nikon Diaphot-TMD microscope. […] Each spheroid was normalized to its own starting volume at the start of treatment (Day 0, growth ratio = 1). Spheroids exceeding a volume of 600 μm^3 were excluded (i.e., terminated) from further analyses as 600 μm^3 is the maximum size possible to obtain in these settings with uncompromised growth conditions.
GraphPad Prism version 6.07 (GraphPad Software, San Diego, USA) was used for data processing and analysis. p-values were determined using unpaired student's t-test for comparison between two groups or one-way ANOVA followed by Tukey's multiple comparisons test, with p < 0.05 (^*), p < 0.01 (^**), p < 0.001 (^***), and p < 0.0001 (^****). For XTT assays cell viability was normalized for irradiated and unirradiated samples separately. […] CDI ≤ 0.7 equaled significant synergistic effect, CDI ≤ 1 equaled additive effect and CDI > 1 equaled antagonistic effect ([29]).

wt p53 tumors = conditions: mice, PM2 combined with radiotherapy; cited from earlier work
p53^−/− tumors = conditions: mice, PM2 combined with radiotherapy; cited from earlier work

SMILES: CC(=O)N[C@H](C(=O)N[C@@H](CO)C(=O)N[C@@H](Cc1ccccc1)C(=O)N[C@]1(C)CCCCCCC=CCCC[C@@](C)(C(N)=O)NC(=O)[C@H](CC(C)C)NC(=O)[C@H](CC(C)C)NC(=O)[C@H](C)NC(=O)[C@H](Cc2c[nH]c3ccccc23)NC(=O)[C@H](Cc2ccc(O)cc2)NC(=O)[C@H](CCC(=O)O)NC1=O)[C@@H](C)O [PM2]
- PM2 effect (H314; 0–20 μM PM2, 0 Gy, two p53 mutations, HPV negative): did not affect and No
- Significant effect of combination (H314; PM2 with 2 Gy EBRT): No
- cleaved caspase-3 expression (cleaved caspase-3; 20 μM PM2, 72 h): distinct increases
- cleaved caspase-3 increase compared to controls (cleaved caspase-3; 20 μM PM2-treated, peak at 72 h, n ≥ 3): 40 fold
- cleaved caspase-3, combination versus PM2 alone (cleaved caspase-3; 2 Gy + 20 μM PM2, p ≤ 0.05): significantly higher expression levels
- Noxa expression (Noxa): distinct increases
- Maximum time to termination (UM-SCC-74B spheroids; 2 × 2 Gy and 3 × PM2): 25 days
- Median time to termination (UM-SCC-74B spheroids; 2 × 2 Gy and 3 × PM2): 21 days
- spheroid response (UM-SCC-74B spheroids; 2 × 2 Gy/3 × 20 μM PM2, day 14): continuous growth inhibition throughout day 14
- spheroid size of untreated controls (UM-SCC-74B spheroids; 3 × 2 Gy + single dose of PM2, day 14): 75%
- increase of median time to termination compared to untreated controls (UM-SCC-74B spheroids; 3 × 2 Gy and 3 × PM2): 2 fold
- Maximum time to termination (UM-SCC-74B spheroids; 3 × 2 Gy and 3 × PM2): 35 days
- Median time to termination (UM-SCC-74B spheroids; 3 × 2 Gy and 3 × PM2): 28 days
- spheroid response (UM-SCC-74B spheroids; 3 × 2 Gy/3 × 20 μM PM2, day 14): continuous growth inhibition throughout day 14
- spheroid size of treated spheroids as % of untreated controls (UM-SCC-74B spheroids; 5 × 20 μM PM2 at 48 h intervals, day 14, no radiation): 57%
- spheroid size of untreated controls (UM-SCC-74B spheroids; 5 × 2 Gy + single dose of PM2, day 14): 55%
- Maximum time to termination (UM-SCC-74B spheroids; 5 × 2 Gy and 1 × PM2): 25 days
- Median time to termination (UM-SCC-74B spheroids; 5 × 2 Gy and 1 × PM2): 21 days
- Maximum time to termination (UM-SCC-74B spheroids; 5 × 2 Gy and 5 × PM2): Not reached
- Median time to termination (UM-SCC-74B spheroids; 5 × 2 Gy and 5 × PM2): Not reached
- spheroid response (UM-SCC-74B spheroids; 5 × 2 Gy/5 × 20 μM PM2): spheroid disintegration and cell death
- Maximum time to termination (UM-SCC-74B spheroids; 5 × PM2, no radiation): 21 days
- Median time to termination (UM-SCC-74B spheroids; 5 × PM2, no radiation): 21 days
- CDI (UM-SCC-74B spheroids; Day 10, 1 × 20 μM PM2 + 1 × 2 Gy): 0.705
- CDI (UM-SCC-74B spheroids; Day 10, 1 × 20 μM PM2 + 2 × 2 Gy): 0.507
- CDI (UM-SCC-74B spheroids; Day 10, 1 × 20 μM PM2 + 3 × 2 Gy): 0.493
- CDI (UM-SCC-74B spheroids; Day 10, 1 × 20 μM PM2 + 5 × 2 Gy): 0.472
- CDI (UM-SCC-74B spheroids; Day 10, 2 × 20 μM PM2 + 2 × 2 Gy): 0.209
- CDI (UM-SCC-74B spheroids; Day 10, 3 × 20 μM PM2 + 1 × 2 Gy): 0.412
- CDI (UM-SCC-74B spheroids; Day 10, 3 × 20 μM PM2 + 2 × 2 Gy): 0.122
- CDI (UM-SCC-74B spheroids; Day 10, 3 × 20 μM PM2 + 3 × 2 Gy): 0.244
- CDI (UM-SCC-74B spheroids; Day 10, 5 × 20 μM PM2 + 1 × 2 Gy): 0.398
- CDI (UM-SCC-74B spheroids; Day 10, 5 × 20 μM PM2 + 5 × 2 Gy): 0.201
- CDI (UM-SCC-74B spheroids; Day 14, 1 × 20 μM PM2 + 1 × 2 Gy): 1.03
- CDI (UM-SCC-74B spheroids; Day 14, 1 × 20 μM PM2 + 2 × 2 Gy): 0.93
- CDI (UM-SCC-74B spheroids; Day 14, 1 × 20 μM PM2 + 3 × 2 Gy): 0.821
- CDI (UM-SCC-74B spheroids; Day 14, 1 × 20 μM PM2 + 5 × 2 Gy): 0.815
- CDI (UM-SCC-74B spheroids; Day 14, 2 × 20 μM PM2 + 2 × 2 Gy): 0.51
- CDI (UM-SCC-74B spheroids; Day 14, 3 × 20 μM PM2 + 1 × 2 Gy): 0.944
- CDI (UM-SCC-74B spheroids; Day 14, 3 × 20 μM PM2 + 2 × 2 Gy): 0.333
- CDI (UM-SCC-74B spheroids; Day 14, 3 × 20 μM PM2 + 3 × 2 Gy): 0.182
- CDI (UM-SCC-74B spheroids; Day 14, 5 × 20 μM PM2 + 1 × 2 Gy): 0.568
- CDI (UM-SCC-74B spheroids; Day 14, 5 × 20 μM PM2 + 5 × 2 Gy): 0.023
- effect on proliferation rate of spheroids (UM-SCC-74B spheroids; all combination treatments of PM2 and EBRT, prior to day 14): synergistic inhibitory effects
- spheroid response (abstract) (UM-SCC-74B spheroids; combination of PM2 and EBRT): growth inhibition and complete spheroid disintegration
- spheroid disintegration (UM-SCC-74B spheroids; five repeated doses of both PM2 (20 μM) and 2 Gy): 100%
- spheroid growth inhibition (UM-SCC-74B spheroids; repeated PM2 doses at 48 h intervals, no radiation): did inhibit growth in a dose-dependent manner
- spheroid growth inhibition (UM-SCC-74B spheroids; single 20 μM PM2, 48 h incubation, no radiation): failed to impair UM-SCC-74B spheroid growth
- spheroid growth inhibition (UM-SCC-74B spheroids; single dose of PM2 with EBRT): greater inhibitory effects than either treatment alone
- spheroid growth inhibition (UM-SCC-74B spheroids; two repeated doses of each of PM2 and EBRT (data not shown)): growth inhibition surpassing the standard 14-day assay
- prolongation of median survival (wt p53 tumors): 50%
- effects on p53^−/− tumors (p53^−/− tumors): negligible
